Data reported in patent publication US20130171105A1, “CANCER THERAPY USING A COMBINATION OF A HSP90 INHIBITORY COMPOUND AND A TOPOISOMERASE II INHIBITOR” (SYNTA PHARMACEUTICALS CORP., priority 2010, published 2013).

Legend:
[1] = biological target: T1, topoisomerase II (Homo sapiens, UniProt P11388); assay: kDNA decatenation assay (Topo II assay); type: biochemical; design: key: + (some inhibition); + (some inhibition) < ++ < +++; ++ < +++ < ++++; ++++ (complete inhibition); settings: kDNA substrate, 37° C. for 30 min, agarose gel
T1 construct: purchased TopoGEN, Inc
T1 sequence (P11388 whole entry): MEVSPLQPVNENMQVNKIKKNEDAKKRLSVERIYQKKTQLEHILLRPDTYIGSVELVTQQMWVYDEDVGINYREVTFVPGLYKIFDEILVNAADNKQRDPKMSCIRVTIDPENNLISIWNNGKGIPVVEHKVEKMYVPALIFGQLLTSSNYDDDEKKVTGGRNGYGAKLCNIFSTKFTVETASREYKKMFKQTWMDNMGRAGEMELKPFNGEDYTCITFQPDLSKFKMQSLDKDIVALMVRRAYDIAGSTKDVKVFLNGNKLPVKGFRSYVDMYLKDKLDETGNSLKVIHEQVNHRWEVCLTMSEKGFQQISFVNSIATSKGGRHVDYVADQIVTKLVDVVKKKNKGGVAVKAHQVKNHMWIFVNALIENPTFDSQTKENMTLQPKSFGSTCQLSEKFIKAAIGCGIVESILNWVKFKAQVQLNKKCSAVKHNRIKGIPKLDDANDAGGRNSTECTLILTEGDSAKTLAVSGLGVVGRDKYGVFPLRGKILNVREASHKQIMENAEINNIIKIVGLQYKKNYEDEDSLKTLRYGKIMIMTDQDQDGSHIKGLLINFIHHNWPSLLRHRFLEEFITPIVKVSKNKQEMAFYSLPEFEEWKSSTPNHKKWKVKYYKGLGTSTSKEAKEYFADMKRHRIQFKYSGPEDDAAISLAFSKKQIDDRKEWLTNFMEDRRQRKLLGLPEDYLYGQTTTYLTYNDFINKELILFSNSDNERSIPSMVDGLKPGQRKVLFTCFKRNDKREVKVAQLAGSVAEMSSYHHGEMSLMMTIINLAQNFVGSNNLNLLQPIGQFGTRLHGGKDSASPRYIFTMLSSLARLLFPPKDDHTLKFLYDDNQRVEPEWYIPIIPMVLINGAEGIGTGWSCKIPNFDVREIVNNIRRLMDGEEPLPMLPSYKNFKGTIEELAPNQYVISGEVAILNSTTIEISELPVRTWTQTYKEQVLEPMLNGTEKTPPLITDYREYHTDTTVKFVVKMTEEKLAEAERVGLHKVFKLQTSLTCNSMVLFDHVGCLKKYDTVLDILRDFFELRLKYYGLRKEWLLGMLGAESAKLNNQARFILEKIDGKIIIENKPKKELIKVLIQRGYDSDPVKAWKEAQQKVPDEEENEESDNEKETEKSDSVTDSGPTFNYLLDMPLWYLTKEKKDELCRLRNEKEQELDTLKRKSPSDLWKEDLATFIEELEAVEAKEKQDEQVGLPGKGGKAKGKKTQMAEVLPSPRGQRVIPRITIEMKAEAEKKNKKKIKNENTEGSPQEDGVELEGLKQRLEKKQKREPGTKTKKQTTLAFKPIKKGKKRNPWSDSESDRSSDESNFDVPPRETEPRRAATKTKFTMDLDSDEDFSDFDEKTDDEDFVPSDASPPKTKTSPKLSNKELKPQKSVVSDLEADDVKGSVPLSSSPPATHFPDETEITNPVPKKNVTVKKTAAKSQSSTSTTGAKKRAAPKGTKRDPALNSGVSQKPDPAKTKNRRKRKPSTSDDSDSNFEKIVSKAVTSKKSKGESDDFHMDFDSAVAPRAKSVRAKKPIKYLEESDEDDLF
Experimental: The ability of compounds of the formulae (I) or (Ia) to inhibit the activity of topoisomerase II was examined with a kDNA decatenation assay (TopoGEN, Inc. Port Orange, Fla.). Substrate kDNA was mixed with compounds and incubated at 37° C. for 30 min. The reaction was stop by adding ⅕ volume of stop buffer. 20 μl of the reaction was loaded on 1% agarose gel. Image of decatenation of kDNA by compounds was taken by Kodak Image Station 440. Table 1 indicates the ability of compound 1 inhibiting the activity of topoisomerase II.

[2] = test system: K562 chronic myelogenous leukemia cells; assay: Cell viability, Alamar Blue assay; settings: Homo sapiens, K562, 72 h, read-out: IC50 (cell viability)
Experimental: Human K562 chronic myelogenous leukemia cells (American Type Culture Collection) were grown in RPMI medium with 2 mM L-glutamine, antibiotics (100 IU/ml penicillin and 100 μg/ml streptomycin) and 10% fetal bovine serum (Sigma Aldrich). Cells were maintained at 37° C., 5% CO2 atmosphere and subcultured at 1×10^6 cells/mL.
Cell viability was measured using the Alamar Blue assay (Invitrogen). In brief, cells were plated in 96-well plates in triplicate at 2000 cells per well and incubated at 37° C., 5% CO2 atmosphere for 24 hr prior to the addition of drug or vehicle (0.3% DMSO) to the culture medium. After 72 hr, 10 μl/well Alamar Blue was added to the wells and incubated for an additional 3 hr at 37° C., 5% CO2 atmosphere. Fluorescence (560Ex/590Em nM) was measured with a SpectraMax microplate reader (Molecular Devices) and the resulting data were used to calculate cell viability, normalized to vehicle control.
After 72 hr exposure to drug, cell viability was measured and results were fit to a four parameter logistic model (XLFit, ID Business Solutions) shown in FIG. 1.

Row | Topo II assay (effectiveness at inhibition) [1] | IC50 [2] | SMILES
1 | + | 16 nM | CC(C)c1cc(-c2nnc(O)n2-c2ccc3c(ccn3C)c2)c(O)cc1O [Compound 1, 3-(2,4-DIHYDROXY-5- ISOPROPYL-PHENYL)-4-(1- METHYL-INDOL-5-YL)-5- HYDROXY-[1,2,4] TRIAZOLE]
2 |  | 21 nM | COc1cc([C@@H]2c3cc4c(cc3[C@@H](O[C@@H]3O[C@@H]5CO[C@@H](C)O[C@H]5[C@H](O)[C@H]3O)[C@H]3COC(=O)[C@H]23)OCO4)cc(OC)c1O [etoposide, reference compound]
